Measurements reported in patent publication US6812247B2, “Organometallic complex” (Academia Sinica, priority 2001, dated 2004).

How the values were obtained:
[1] = test system: 160-bp dsDNA fragment from the 501-660 fragment of pBR322 DNA; experiment: Site-specific DNA cleavage of 5'-32P-labeled fragment, polyacrylamide gel against Maxam-Gilbert markers; type: biochemical; conditions: complex 20-100 μM, 350-nm UV
Protocol: A 160-bp dsDNA fragment was prepared from the 501-660 fragment of pBR322 DNA. It was amplified by the polymerase chain reaction (Bailly & Waring (1995) J. Am. Chem. Soc. 117:7311; Bailly et al. (1993) J. Am. Chem. Soc. 115:3784; and Sayers & Waring (1993) Biochemistry 32:9094), and labeled at the 5′-terminus with γ-[^32P]-ATP and T4 polynucleotide kinase. A reaction mixture containing a 5′-terminus labeled ^32P-DNA solution, a phosphate buffer (0.10 M, pH 6.0), and complex 1 (20-100 μM) in a Pyrex vial was preincubated at 37° C. for 30 min. The reaction mixture was irradiated with 350-nm UV light under aerobic conditions for 2.0 h at room temperature. The bound metal complexes on DNA fragments were removed by using 0.30 N NaCN (pH=11) at 37° C. for 8.0 h (Schwartz et al. (1990) J. Am. Chem. Soc. 112:3673; and Zou et al. (1994) Biochemistry 33:5404). The reaction mixture was then quenched with either a gel-loading buffer or 95% ethanol. […] The samples and the Maxam-Gilbert markers were analyzed using 10% polyacrylamide/8.0 M urea gel. […] Quantitation of relative intensities of DNA fragments was performed using a Microtek scanner and NIH 1.60 image program.
The detected DNA fragments were compared with Maxam-Gilbert markers on an autoradiogram, and quantitated by a computer-assisted program.

[2] = test system: double helical oligonucleotide d(ATAT)2; experiment: DNA binding and cleaving mechanism with oligonucleotide, LC-mass; conditions: 1:1, pH 6.0, in the dark 2.0 h
Protocol: A double helical oligonucleotide d(ATAT)2 was prepared and added to a phosphate buffer solution (pH=6.0) containing complex 1 (1:1). The solution was kept in the dark for 2.0 h. An intermediate was detected, at a yield of 57%, with a signal at 650.1 for (M+H^+) as analyzed by an electron spray ionization detector in LC-mass chromatogram. Then, the solution was irradiated with 350 nm-UV light for 2.0 h at room temperature. A product was detected with a signal at 456.1 for (M+H^+). […] Then an intramolecular cyclization took place to remove the DMSO and to form a covalent bond between the N-7 nitrogen atom and the platinum in complex 1, resulting in the oligonucleotide cleavage.

2′-deoxyguanosine = experiment: Binding and cleaving mechanism with 2'-deoxyguanosine, LC-mass
Protocol: As a comparison, a reaction involving 2′-deoxyguanosine and complex 1 was carried out. […] As a result, cleavage at a guanine site required assistance from an external base (e.g., piperidine). In another experiment, an excess of complex 1 was added to a 2′-deoxyguanosine solution, followed by piperidine treatment. An intermediate was detected, at a yield of 42%, with a signal at 1063.9 for (M+H^+) as analyzed by an electron spray ionization detector in LC-mass chromatogram. The intermediate was able to give a cyclization product, at a yield of 80%, with a signal at 792.0 for (M+H^+) upon 350-nm UV light irradiation, but not in the dark. The scheme below depicts the just-described reaction: [drawing 6]

[3] = test system: supercoiled circular φX174 RFI DNA; experiment: Single-strand DNA cleavage at various complex concentrations, 350 nm UV, agarose gel; type: biochemical; conditions: for % form I (supercoiled circular DNA) / % form II (cleaved DNA) / (% form II)/(% form I): pH 6.0
Protocol: The mixture was irradiated with 350 nm UV light (32-W) for 2.0 h at room temperature. After adding a gel-loading buffer (0.25% bromophenol blue, 0.25% xylene cyanol, and 30% glycerol), the reaction mixture was loaded on a 1% agarose gel, followed by ethidium bromide staining. The gel was visualized by a 312-nm UV transilluminator and photographed by a FB-PDC-34 camera. Supercoiled circular DNA (form I) and cleaved DNA (form II) were clearly seen from the gel.

[4] = test system: supercoiled circular φX174 RFI DNA; experiment: Single-strand DNA cleavage at various pH's, 350 nm UV, agarose gel; type: biochemical; conditions: complex 5.0 μM
Protocol: Cleavage at Various pH's: A reaction mixture (10 μL) containing supercoiled circular φX174 RFI DNA stock solution (50 μM/base pair), complex 1 (5.0 μM), and a phosphate buffer (0.10 M, pH 5.0, 6.0, 7.0, and 8.0) in a Pyrex vial was preincubated at 37° C. The reaction mixture was then irradiated with 350 nm UV light (32-W) for 2.0 h at room temperature. After adding a gel-loading buffer (0.25% bomophenol blue, 0.25% xylene cyanol, and 30% glycerol), the reaction mixture was loaded on a 1% agarose gel, followed by ethidium bromide staining. The gel was visualized by a 312-nm UV transilluminator and photographed by a FB-PDC-34 camera. Supercoiled circular DNA and cleaved DNA were clearly seen from the gel.

[5] = complex 1.0 μM, 350 nm UV 2.0 h
[6] = complex 2.5 μM, 350 nm UV 2.0 h
[7] = complex 5.0 μM, 350 nm UV 2.0 h

C[S+](C)(=O)[Pt]1([Cl])[O][n+]2ccccc2[S]1 (centres unmarked) [complex 1, PtCl(DMSO)[η^2—C5H4SN(O)]]
site of DNA cleavage ([1]; with hot piperidine treatment): cleaved DNA at purine residues | site of DNA cleavage ([1]; without piperidine treatment): at adenine residues | binding site on nucleic acid [2]: bound to the C-6 amino on an adenine | yield of complex-bound intermediate [2]: 57% | binding site on nucleic acid (2′-deoxyguanosine): bound to the C-2 amino on a guanine | yield of cyclization product from intermediate (2′-deoxyguanosine; 350-nm UV light irradiation, not in the dark): 80% | yield of complex-bound intermediate (2′-deoxyguanosine; excess of complex 1, piperidine treatment): 42% | % form I (supercoiled circular DNA) [3, 5]: 37% | % form II (cleaved DNA) [3, 5]: 63% | (% form II)/(% form I) [3, 5]: 1.7 | % form I (supercoiled circular DNA) [3, 6]: 20% | % form II (cleaved DNA) [3, 6]: 80% | (% form II)/(% form I) [3, 6]: 4.0 | % form I (supercoiled circular DNA) [3, 7]: 7.1% | % form II (cleaved DNA) [3, 7]: 93% | (% form II)/(% form I) [3, 7]: 13 | % form I (supercoiled circular DNA) ([3]; complex 500 μM, in the dark): 93% | % form II (cleaved DNA) ([3]; complex 500 μM, in the dark): 7.0% | (% form II)/(% form I) ([3]; complex 500 μM, in the dark): 0.070 | DNA cleaving activity ([3]; concentration as low as 1.0 μM): very strong DNA cleaving activity | cleavage of single-strand DNA ([3]; in the dark): did not occur | DNA forms seen on gel ([4]; pH 5.0, 6.0, or 7.0, 350 nm UV 2.0 h): only cleaved DNA was observed | DNA forms seen on gel ([4]; pH 8.0, 350 nm UV 2.0 h): both supercoiled circular DNA and cleaved DNA were observed
